In patent US11098032B2, “Pyran dervatives as CYP11A1 (cytochrome P450 monooxygenase 11A1) inhibitors” (ORION CORPORATION, priority 2016, dated 2021) one finds IC50 data, which are given here for 26 compounds.

pIC50: −log10 of the molar value. Where a name gives a salt, the structure may show the parent alone.

The assay addresses T1, CYP11A1 (Homo sapiens, UniProt P05108).
T1 construct: human H295R adrenocortical carcinoma cell line was used as source of enzyme; endogenous in cells; host or cells: H295R human adrenocortical carcinoma cells
T1 sequence (P05108 40-521): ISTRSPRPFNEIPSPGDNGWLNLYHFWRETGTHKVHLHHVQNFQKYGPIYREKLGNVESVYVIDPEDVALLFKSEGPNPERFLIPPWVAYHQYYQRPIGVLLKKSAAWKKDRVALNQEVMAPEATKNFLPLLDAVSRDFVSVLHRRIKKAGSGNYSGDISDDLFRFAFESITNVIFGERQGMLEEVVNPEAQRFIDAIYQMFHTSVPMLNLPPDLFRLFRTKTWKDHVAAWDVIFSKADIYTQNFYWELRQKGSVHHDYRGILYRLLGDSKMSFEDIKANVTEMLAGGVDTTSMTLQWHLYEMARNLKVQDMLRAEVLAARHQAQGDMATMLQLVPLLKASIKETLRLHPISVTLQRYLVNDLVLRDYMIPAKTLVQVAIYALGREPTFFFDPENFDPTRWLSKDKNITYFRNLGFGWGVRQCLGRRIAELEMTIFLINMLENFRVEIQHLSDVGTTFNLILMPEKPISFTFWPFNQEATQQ
Kind of assay: CYP11A1 inhibition: modified isocaproic acid release assay (IARA) in H295R cells. It is filed as cell-based. As to conditions: human H295R adrenocortical carcinoma cells treated three days, 3 nM [24,25-3H]-labelled cholesterol, 1% DMSO, 10 concentrations in duplicates; read-out: IC50 of the test compounds on CYP11A1 inhibition. On the procedure:
The ability of the test compounds to inhibit conversion of cholesterole to pregnenolone and isocaproic acid was measured by modification of isocaproic acid release assay (IARA) described by Ruangwises et. al. (Biology of Reproduction 1991; 45(1):143-50) except that human H295R adrenocortical carcinoma cell line was used as source of enzyme and extraction was done with dextran-coated charcoal suspension (Isomaa, V. et al., Endocrinology 1982; 111(3):833-843). […] To determine the half maximal inhibitory concentration (IC50) of the test compounds on CYP11A1 inhibition, the cells were treated for three days with increasing concentrations of the test compounds in the presence of 3 nM [24,25-3H]-labelled cholesterol (American Radiolabelled Chemicals). The final DMSO concentration was 1%. Cell culture medium was extracted with dextran-coated charcoal suspension and the radiolabelled isocaproic acid was determined by mixing 100 μl of supernatant fraction in 200 μl of scintillation fluid (OptiPhase SuperMix, Perkin Elmer). Radioactivity was measured using a Microbeta scintillation counter (1450 MicroBeta Trilux, Wallac). All the test compounds were studied at 10 concentrations in duplicates.
As to `CCOC(=O)C(=O)N1CCC(COc2coc(CN3Cc4ccccc4C3)cc2=O)CC1` [Compound 269, Ethyl 2-(4-(((6-(isoindolin-2-ylmethyl)-4-oxo-4H-pyran-3-yl)oxy)methyl)-piperidin-1-yl)-2-oxoacetate], the pIC50 (in general, −log10 of the IC50, conventionally taken in molar units) was 6.52 to 6.82.
To `CC(=O)NC(C)(C)c1ccc(COc2coc(CN3Cc4ccccc4C3)cc2=O)cc1` [Compound 69, N-(2-(4-(((6-(Isoindolin-2-ylmethyl)-4-oxo-4H-pyran-3-yl)oxy)methyl)phenyl)-propan-2-yl)acetamide] belongs 6.52 to 6.82.
The same measure for `CC(C)CC(=O)N[C@@H]1C=C[C@H](COc2coc(CN3Cc4ccccc4C3)cc2=O)C1` (relative stereo) [Compound 275, Cis-N-(4-(((6-(isoindolin-2-ylmethyl)-4-oxo-4H-pyran-3-yl)oxy)methyl)cyclo-pent-2-en-1-yl)-3-methylbutanamide, Formate]: 5.70 to 6.52; for `CN(C)C(=O)c1ccc(COc2coc(CN3CCc4ccccc4C3)cc2=O)cc1F` [Compound 78, 4-(((6-((3,4-Dihydroisoquinolin-2(1H)-yl)methyl)-4-oxo-4H-pyran-3-yl)oxy)-methyl)-2-fluoro-N,N-dimethylbenzamide]: 5.70 to 6.52.
To `CC(C)NC(=O)c1ccc(COc2coc(CN3Cc4ccccc4C3)cc2=O)cc1` [Compound 140, 4-(((6-(Isoindolin-2-ylmethyl)-4-oxo-4H-pyran-3-yl)oxy)methyl)-N-isopropylbenzamide] belongs 6.52 to 6.82; to `O=C(COc1coc(CN2Cc3ccccc3C2)cc1=O)N1CCN(c2ccc(Cl)cc2)CC1` [Compound 154, 5-(2-(4-(4-Chlorophenyl)piperazin-1-yl)-2-oxoethoxy)-2-(isoindolin-2-ylmethyl)-4H-pyran-4-one], 5.70 to 6.52.
`O=C(COc1coc(CN2Cc3ccccc3C2)cc1=O)N1CCN(Cc2ccccc2)CC1` [Compound 153, 5-(2-(4-Benzylpiperazin-1-yl)-2-oxoethoxy)-2-(isoindolin-2-ylmethyl)-4H-pyran-4-one]: the pIC50 is 5.70 to 6.52.
On to `CCS(=O)(=O)N1CC=C(COc2coc(CN3Cc4ccccc4C3)cc2=O)CC1` [Compound 99, 5-((1-(Ethylsulfonyl)-1,2,3,6-tetrahydropyridin-4-yl)methoxy)-2-(isoindolin-2-ylmethyl)-4H-pyran-4-one], for which the pIC50 is 6.52 to 6.82.
Regarding `CCC(=O)N1CCC(COc2coc(CN3Cc4ccc(F)cc4C3)cc2=O)CC1` [Compound 224, 2-((5-Fluoroisoindolin-2-yl)methyl)-5-((1-propionylpiperidin-4-yl)methoxy)-4H-pyran-4-one], the pIC50 was greater than 6.82.
For the compound `O=C(COc1coc(CN2Cc3ccccc3C2)cc1=O)N1CCN(S(=O)(=O)c2ccccc2)CC1` [Compound 156, 2-(Isoindolin-2-ylmethyl)-5-(2-oxo-2-(4-(phenylsulfonyl)piperazin-1-yl)ethoxy)-4H-pyran-4-one], the pIC50 is 5.70 to 6.52.
For the compound `O=C(NC1CC1)N1CCC(COc2coc(CN3Cc4ccccc4C3)cc2=O)CC1` [Compound 247, N-Cyclopropyl-4-(((6-(isoindolin-2-ylmethyl)-4-oxo-4H-pyran-3-yl)oxy)-methyl)piperidine-1-carboxamide], the pIC50 is 6.52 to 6.82.
Turning to `CN(C)C(=O)c1ccc(COc2coc(CN3Cc4ccccc4C3)cc2=O)cc1` [Compound 120, 4-(((6-(Isoindolin-2-ylmethyl)-4-oxo-4H-pyran-3-yl)oxy)methyl)-N,N-dimethylbenzamide], the pIC50 was 6.52 to 6.82.
To `CS(=O)(=O)N1CCC(COc2coc(C[N+]3([O-])Cc4ccccc4C3)cc2=O)CC1` [Compound 289, 2-((5-((1-(Methylsulfonyl)piperidin-4-yl)methoxy)-4-oxo-4H-pyran-2-yl)-methyl)isoindoline 2-oxide] belongs 5.70 to 6.52; to `CS(=O)(=O)c1ccc(COc2coc(CN3Cc4ccc(OC(F)(F)F)cc4C3)cc2=O)cc1` [Compound 37, 5-((4-(Methylsulfonyl)benzyl)oxy)-2-((5-(trifluoromethoxy)isoindolin-2-yl)-methyl)-4H-pyran-4-one], greater than 6.82.
To `CC(C)CC(=O)C(=O)N1CCC(COc2coc(CN3Cc4ccccc4C3)cc2=O)CC1` [Compound 249, 1-(4-(((6-(Isoindolin-2-ylmethyl)-4-oxo-4H-pyran-3-yl)oxy)methyl)piperidin-1-yl)-4-methylpentane-1,2-dione] belongs greater than 6.82; to `CNC(=O)/C=C/c1ccc(COc2coc(CN3CCc4ccccc4C3)cc2=O)cc1` [Compound 148, (E)-3-(4-(((6-((3,4-Dihydroisoquinolin-2(1H)-yl)methyl)-4-oxo-4H-pyran-3-yl)oxy)methyl)phenyl)-N-methylacrylamide], 5.70 to 6.52.
The same measure for `CC(C)CS(=O)(=O)c1ccc(COc2coc(CN3Cc4ccccc4C3)cc2=O)cc1` [Compound 73, 5-((4-(Isobutylsulfonyl)benzyl)oxy)-2-(isoindolin-2-ylmethyl)-4H-pyran-4-one]: greater than 6.82; for `O=c1cc(CN2Cc3ccccc3C2)occ1OCc1ccc(-c2ncco2)cc1` [Compound 109, 2-(Isoindolin-2-ylmethyl)-5-((4-(oxazol-2-yl)benzyl)oxy)-4H-pyran-4-one]: greater than 6.82; for `CC(=O)[C@H]1CC[C@H](COc2coc(CN3Cc4ccccc4C3)cc2=O)CC1` [Compound 244, 5-(((1r,4r)-4-Acetylcyclohexyl)methoxy)-2-(isoindolin-2-ylmethyl)-4H-pyran-4-one]: greater than 6.82.
On to `O=C(c1ccc(COc2coc(CN3Cc4ccccc4C3)cc2=O)cc1)N1CCC(O)CC1` [Compound 152, 5-((4-(4-Hydroxypiperidine-1-carbonyl)benzyl)oxy)-2-(isoindolin-2-ylmethyl)-4H-pyran-4-one], for which the pIC50 is 5.70 to 6.52.
The same measure for `CCS(=O)(=O)N1CCC(COc2coc(CN3Cc4ccc(F)cc4C3)cc2=O)CC1` [Compound 189, 5-((1-(Ethylsulfonyl)piperidin-4-yl)methoxy)-2-((5-fluoroisoindolin-2-yl)methyl)-4H-pyran-4-one]: greater than 6.82; for `CS(=O)(=O)N1CCC(COc2coc(CN3Cc4ccc(F)c(F)c4C3)cc2=O)CC1` [Compound 245, 2-((4,5-Difluoroisoindolin-2-yl)methyl)-5-((1-(methylsulfonyl)piperidin-4-yl)methoxy)-4H-pyran-4-one]: 5.70 to 6.52.
The same measure for `CCS(=O)(=O)c1ccc(COc2coc(CN3Cc4ccccc4C3)cc2=O)cc1` [Compound 24, 5-((4-(Ethylsulfonyl)benzyl)oxy)-2-(isoindolin-2-ylmethyl)-4H-pyran-4-one]: 6.52 to 6.82; for `N#CCS(=O)(=O)N1CCC(COc2coc(CN3Cc4ccccc4C3)cc2=O)CC1` [Compound 254, 2-((4-(((6-(Isoindolin-2-ylmethyl)-4-oxo-4H-pyran-3-yl)oxy)methyl)piperidin-1-yl)sulfonyl)acetonitrile]: greater than 6.82.
Regarding `N#Cc1ccc(COc2coc(CN3Cc4ccccc4C3)cc2=O)cc1` [Compound 45, 4-(((6-(Isoindolin-2-ylmethyl)-4-oxo-4H-pyran-3-yl)oxy)methyl)benzonitrile], the pIC50 was 5.70 to 6.52.
As for `CN(C)C(=O)c1ccc(COc2coc(CN3Cc4ccccc4C3)cc2=O)nc1` [Compound 170, 6-(((6-(Isoindolin-2-ylmethyl)-4-oxo-4H-pyran-3-yl)oxy)methyl)-N,N-dimethyl-nicotinamide], the pIC50 was 5.70 to 6.52.
